Measurements taken from patent publication US11596664B2, “Plant extracts made of Sideritis and use thereof to boost cognitive performance” (Finzelberg GmbH & Co. KG, priority 2010, dated 2023).

Test system: serotonin absorption (serotonergic re-uptake)
Experiment: Serotonin absorption inhibition, test system according to EP 1 634 602
Format: biochemical
Details: reference substance at 10 μm; defines 100%
Text: Serotonergic neurotransmission being influenced is described for plants of the genus Sideritis in the patent application EP 1 634 602. […] The experimental set-up described in paragraphs [0046] to [0054] for measuring serotonergic re-uptake rates was used for initial screening of suitable species for the tests.
50 g of the herbal drug is mixed twice with 15 times the quantity of boiling water and extracted with agitation. Both maceration extracts are allowed to stand at room temperature to cool down and combined. The two combined macerations are filtered off with a fluted filter and concentrated to a soft extract using a rotary evaporator. The extractive yields determined for the different species are shown below. In order to test for the serotonin absorption inhibition, the extracts were all weighed in at the same native content and assayed with a measuring concentration of 50 μg/ml in the test system according to EP 1 634 602.
50 g of the herb Sideritis was mixed twice at 45° C. with 15 times the quantity of a mixture of water and ethanol and extracted with agitation. Both maceration extracts were allowed to stand at room temperature to cool down and combined. The two combined macerations were filtered off with a fluted filter and concentrated to a soft extract using a rotary evaporator. The extractive yields determined for the different species are shown below. […]

## COCCCC/C(=N\OCCN)c1ccc(C(F)(F)F)cc1 [fluvoxamine]
  Serotonin absorption inhibition, positive control: 100%
